Measured values as given in publication PMC9952391, “The Role of Acetyl Zingerone and Its Derivatives in Inhibiting UV-Induced, Incident, and Delayed Cyclobutane Pyrimidine Dimers” (Antioxidants, 2023).
Where “and” joins values, the source holds several entries; their conditions need not be identical. Equal entries are not always repeated.

Experiments:
melanin in Mel-a cells = experiment: Melanin amount in melanocytes cultured in varied tyrosine; type: cell-based; conditions: 50 µg/mL
Description: The amino acid tyrosine is essential for melanin synthesis, and it is added to the OptiMem medium at a proprietary concentration by ThermoFisher. Assuming this concentration to be “100% tyrosine”, we purchased the “custom-prepared, tyrosine-free” medium from ThermoFisher. This medium lacked tyrosine or its precursors, which include L-tyrosine, L-tyrosine-2Na-2H2O, L-tyrosine-Di-sodium salt, Hypoxanthine, and Sodium Hypoxanthine. Mel-a (pigmented mouse melanocyte) cells were cultured in regular cell culture medium containing 100% tyrosine, and in medium containing 20%, 4%, or 0% of the total tyrosine amount. This was achieved by diluting the regular OptiMem with the one containing no tyrosine (tyrosine-free, 0% tyrosine). […] Since the cells cultured in 0%-tyrosine medium lost their pigment over time (Figure 5) and the cell pellets were almost white or opaque in color, we assumed that the minimal amount of tyrosine from the horse serum used in the cell culture medium was not sufficient for melanin synthesis. To estimate the amount of melanin, 3 × 10^6–5 × 10^6 cells were lysed in 1M sodium hydroxide (NaOH) by heating them at 100 °C for 1–2 h, which was followed by a 10-min spin at 14,000 rpm at room temperature to remove any cell debris. Absorbance of the supernatant was recorded using the supernatant in a 96-well plate in triplicates from each sample, at 460–490 nm. Synthetic melanin (Cat. M0418, Sigma) was dissolved in methanol and used as a positive control to generate standard curves to estimate the melanin amount in cell lysates. The number of cells in each pellet was used as a normalization factor for each experimental condition. In a complementary experiment, cells were first bleached out of melanin completely by culturing them in tyrosine-free medium, followed by 100/20/4/0% tyrosine (not shown) treatment. This seemed to be cytotoxic, comparatively more so in 100% tyrosine, probably owing to the toxicity of the sudden rush of melanin derivatives and the oxidative stress generated during melanin synthesis.

[1] = tested on: Xpa, Xpc, Mitf, Xrcc1 expression in Mel-a; experiment: qPCR expression of NER pathway genes, Mel-a; type: cell-based, mouse
Description: (§1) Various cell types were collected 24-h post incubation with 200 µg/mL AZ and MBPD, with and without ssUV exposure. RNA was isolated using a Quick-RNA isolation kit (Cat. R1050, Zymo Research). The cDNA was prepared using a High-Capacity cDNA Reverse Transcription Kit (Cat. 4368814, ThermoFisher Scientific). The gene expression of XPA, XPC, and MITF genes was assessed using the following primers. β-actin was used as an internal control for normalizations and data analyses. F1-R1 and F2-R2 represents two primer pairs which were used in the qPCR experiments.

[2] = tested on: incident CPDs (iCPDs) in NBHF cells; experiment: iCPD assessment by DNA ELISA after ssUV, NBHF; type: cell-based, human
Excerpt: (§2) For UV exposures, we used a “SOL-UV6 ultraviolet solar simulator” from Newport irradiators. It is equipped with a Xenon arc lamp where the output is varied using the integrated variable attenuator aperture, which provides the ability to vary the output from 10% to 100% of the maximum available solar constants. The output spectrum is flat from 320 nm to 400 nm and no values are below 300 nm. This is abbreviated as “ssUV” for “solar-simulated UV” throughout the text. Various cell types seeded at ~50% confluency, were treated with the AZ and analogs at concentrations mentioned in the data figures for 24–h. Cells at ~80–90% confluency (untreated controls), were washed twice with PBS and exposed to 18 kJ/m^2 of ssUV in minimal amount of PBS (ex. 2 mL PBS in a 60 mm cell culture dish) without any dish lid in place. […] The ssUV apparatus was monitored almost daily using UV meters for any emissions below 300 nm. The dose was decided based upon the 80–90% cell survival post UV exposure. After exposure, one time point was collected immediately to assess iCPDs, whereas more dishes were incubated in cell culture medium, inside the cell culture incubator, for various time points to be collected post UV to assess dCPDs. For dCPD induction, it is important that the cell culture incubator is not opened for at least 30 min (the first time point post UV) to avoid possible interference from the CO2/O2 ratio, which will be altered upon opening the incubator doors. Cells were collected by scraping and washed once with PBS, which was followed by DNA isolation using a Quick DNA miniprep Kit (Cat. D3024, Zymo Research, Irvine, CA, USA). CPDs were assessed using our previously established DNA ELISA protocols. In brief, ELISA was performed using mouse monoclonal Anti-CPD (Cat. CAC-NM-DND-001, Clone TDM-2, CosmoBio, Inc., Carlsbad, CA, USA). Flat-bottom, 96-well plates (Cat. 2801, Thermo Scientific, Waltham, MA, USA) were coated overnight with 50 µL of protamine sulphate (0.005–0.05%, Cat. P3369, Sigma, St. Lois, MO, USA) in distilled water. After washing twice with water, heat-denatured DNA was plated in triplicates from each sample, into the protamine sulphate coated plate wells (50–100 ng/well in 50 µL PBS) and incubated overnight at 37 °C. The plates were washed 5 times with 200 µL of PBST (PBS containing 0.05% Tween-20 Cat. P7949, Sigma), and blocked with 2–4% FBS in PBST (blocking buffer) for 1 h at room temperature (RT). The plates were incubated with 100 µL of a 1:1000 dilution of anti-CPD antibody in blocking buffer, and incubated for 30 min at 37 °C, which was followed by 5 washes in PBST. Next, the plates were incubated with 100 µL of a 1:2000 dilution of Biotin-F(ab’)2 fragment of anti-mouse IgG(H+L) (Cat. B-2763, Life Technologies) in blocking buffer for 30 min at 37 °C. Detection was conducted using 100 µL of a 1:10,000 dilution of Streptavidin HRP (Cat. 434323, Life Technologies) in 2% FBS for 30 min at 37 °C, which was followed by 5 washes. The plates were washed once with citrate phosphate buffer (24.3 mM citric acid monohydrate, J.T. Baker Cat. 0110-01- and 51.4-mM sodium phosphate dibasic, Sigma Cat. S7907, pH 5.0). The o-phenylene diamine dihydrochloride (Cat. P8287-50TAB, Sigma) was used as a HRP substrate at 400 µg/mL in citrate phosphate buffer for 5–10 min. A measure of 50 µL of 2M H2SO4 was used to stop the reaction as soon as the color developed (5–10 min incubation in substrate), and OD was measured at 490 nm using a Synergy-2 multimode microplate reader (BioTek, Winooski, VT, USA).

[3] = tested on: Xpa, Xpc, Mitf, Xrcc1 expression in Mel-c; experiment: qPCR expression of NER pathway genes, Mel-c; type: cell-based, mouse; conditions: 24 h incubation
Description: as §1

[4] = tested on: nitrotyrosine / nitric oxide synthase (NOS) activity in Mel-a melanocytes; experiment: Immunofluorescence for nitrotyrosine (marker of NOS activity); type: cell-based, mouse; conditions: 50 µg/mL, 24–36 h
Description: Posttranslational modification nitrotyrosine was used as a marker of nitric oxide synthase (NOS) activity. Melanocytes were cultured on collagen-coated, glass-bottom dishes (cat. P35G-1.5-14-C, MatTek, Ashland, MA, USA). After various treatments, cells were fixed with 4% formaldehyde for 10 min at RT, washed with PBS, and permeabilized with 0.5% Triton-X in PBS for 10 min. After blocking for non-specific antibody binding using 5% goat serum (Cat. 16210064, ThermoFisher Scientific) and 1% globulin free BSA (Cat. 001-000-161, Jackson ImmunoResearch, West Grove, PA, USA) in 0.1% Triton-x in PBS (blocking buffer) for 2 h at room temperature, cells were incubated with 1:1000 dilution of anti-nitrotyrosine antibody (Cat. A-21285, ThermoFisher Scientific) overnight at 4 °C. Detection was conducted using Alexa Fluor 488 Goat Anti-rabbit IgG (Cat. A-11008, Life Technologies). Imaging was performed using a ZEISS Axio Observer microscope. Approximately 5–10 images per condition, with ~70–100 cells per image, were quantitated for nitrotyrosine fluorescence using ImageJ software.

[5] = tested on: incident CPDs (iCPDs) in HaCaT cells; experiment: iCPD assessment by DNA ELISA after ssUV, HaCaT; type: cell-based, human; conditions: various doses, Supplementary Figure S2A
Excerpt: (§3) For UV exposures, we used a “SOL-UV6 ultraviolet solar simulator” from Newport irradiators. It is equipped with a Xenon arc lamp where the output is varied using the integrated variable attenuator aperture, which provides the ability to vary the output from 10% to 100% of the maximum available solar constants. The output spectrum is flat from 320 nm to 400 nm and no values are below 300 nm. This is abbreviated as “ssUV” for “solar-simulated UV” throughout the text. Various cell types seeded at ~50% confluency, were treated with the AZ and analogs at concentrations mentioned in the data figures for 24–h. Cells at ~80–90% confluency (untreated controls), were washed twice with PBS and exposed to 18 kJ/m^2 of ssUV in minimal amount of PBS (ex. 2 mL PBS in a 60 mm cell culture dish) without any dish lid in place. […] The ssUV apparatus was monitored almost daily using UV meters for any emissions below 300 nm. The dose was decided based upon the 80–90% cell survival post UV exposure. After exposure, one time point was collected immediately to assess iCPDs, whereas more dishes were incubated in cell culture medium, inside the cell culture incubator, for various time points to be collected post UV to assess dCPDs. For dCPD induction, it is important that the cell culture incubator is not opened for at least 30 min (the first time point post UV) to avoid possible interference from the CO2/O2 ratio, which will be altered upon opening the incubator doors. Cells were collected by scraping and washed once with PBS, which was followed by DNA isolation using a Quick DNA miniprep Kit (Cat. D3024, Zymo Research, Irvine, CA, USA). CPDs were assessed using our previously established DNA ELISA protocols. In brief, ELISA was performed using mouse monoclonal Anti-CPD (Cat. CAC-NM-DND-001, Clone TDM-2, CosmoBio, Inc., Carlsbad, CA, USA). […] A measure of 50 µL of 2M H2SO4 was used to stop the reaction as soon as the color developed (5–10 min incubation in substrate), and OD was measured at 490 nm using a Synergy-2 multimode microplate reader (BioTek, Winooski, VT, USA).

[6] = tested on: incident CPDs (iCPDs) in pigmented C57BL/6 melanocytes (Mel-a); experiment: iCPD assessment by DNA ELISA after ssUV, Mel-a; type: cell-based, mouse; conditions: for iCPD inhibition across doses: various doses up to 1 mg/mL, 24 h, Figure 4A
Excerpt: as §2

[7] = tested on: delayed (dark) CPDs (dCPDs) in Mel-a cells; experiment: dCPD assessment by DNA ELISA post ssUV, Mel-a; type: cell-based, mouse
Excerpt: as §3

[8] = tested on: incident CPDs (iCPDs) in albino C57BL/6 melanocytes (Mel-c); experiment: iCPD assessment by DNA ELISA after ssUV, Mel-c; type: cell-based, mouse; conditions: various doses up to 1 mg/mL, 24 h, Figure 4B
Excerpt: as §3

SMILES	Reduction in melanin (pigmentation) (melanin in Mel-a cells; 20% or less tyrosine, ~2–3 weeks) [%]	Reduction in melanin concentration (melanin in Mel-a cells; 100% tyrosine, ~2–3 weeks)	Cell death on longer incubation (melanin in Mel-a cells; 2–3 weeks incubation)	NER pathway gene expression post UV exposure ([1]; 200 µg/ml, 24 h, then 18 kJ/m2 ssUV, various time points, relative to UV-induced upregulation)	Gene expression of Xpa, Xpc and Mitf (NER pathway) ([1]; 24 h incubation, no UV, qPCR)	Gene expression of Xrcc1 ([1]; 24 h incubation, qPCR)	Blockade of iCPDs ([2]; 50 µg/mL, 24 h preincubation, 18 kJ/m^2 ssUV)	inhibition at 10 µg/mL ([2]; Homo sapiens, 10 ug/mL, Figure 3C, read-out: Inhibition of iCPD formation) [%]	iCPD inhibition across doses ([2]; various doses, Figure 3C / Supplementary Figure S2B)	Gene expression of Xrcc1 [3]	Gene expression of Xpa, Xpc and Mitf (NER pathway) ([3]; no UV)	Amount of nitrotyrosine (NOS activity marker) [4]	iCPD inhibition [5]	Blockade of iCPDs ([6]; 50 µg/mL, 24-h preincubation, 18 kJ/m^2 ssUV) [%]	iCPD inhibition across doses [6]	Inhibition of delayed CPDs (dCPDs) ([7]; Mel-a, 50 µg/mL, 24–36 h preincubation, 0.5 to 4 h post ssUV, Figure 4C)	Inhibition of total CPDs (iCPDs + dCPDs) ([7]; extrapolated from 50% iCPD reduction and complete dCPD blockade, pigmented melanocytes)	iCPD inhibition across doses [8]	iCPD inhibition across doses ([6]; listed as RMKE)	Inhibition of iCPD formation ([2]; 50 µg/mL, 24 h preincubation, 18 kJ/m^2 ssUV, Figure 3B)
COc1ccc(CC(C(C)=O)C(C)=O)cc1 [MBPD, 3-(4-Methoxy-benzyl)-pentane-2,4-dione]	> 50	~ 25%	10–15%	elevated slightly	upregulated	remained unaffected	~ 50%	30 to 40	dose-dependent manner	remained unaffected	upregulated	reduced the amount of nitrotyrosine	did not show any effect	~50	blocked iCPD generation in a dose-dependent manner	abrogated the delayed CPDs completely	~ 80% and 70–80%	no significant impact	–	–
COc1ccc(CCC(C)=O)cc1 [RKME, 4-(4-Methoxyphenyl)-butan-2-one, reference compound]	–	–	–	–	–	–	–	–	–	–	–	–	did not show any effect	–	did not show any impact	–	–	did not show any impact	completely abrogated the ability of the molecule to prevent CPD formation	–
COc1cc(CC(C(C)=O)C(C)=O)cc(OC)c1OC [TMBPD, 3-(3,4,5-trimethoxy-benzyl)-pentane-2,4-dione]	–	–	–	–	–	–	–	–	–	–	–	–	–	–	–	–	–	–	–	inhibited iCPD formation to varying extents
